# Biological target: PI3Kα (Homo sapiens, UniProt P42336, H1047R)
# Assay: ADP-Glo IC50 assay
# Assay type: biochemical
# Details: class symbols; key not given
# Sequence of PI3Kα (P42336 whole entry H1047R): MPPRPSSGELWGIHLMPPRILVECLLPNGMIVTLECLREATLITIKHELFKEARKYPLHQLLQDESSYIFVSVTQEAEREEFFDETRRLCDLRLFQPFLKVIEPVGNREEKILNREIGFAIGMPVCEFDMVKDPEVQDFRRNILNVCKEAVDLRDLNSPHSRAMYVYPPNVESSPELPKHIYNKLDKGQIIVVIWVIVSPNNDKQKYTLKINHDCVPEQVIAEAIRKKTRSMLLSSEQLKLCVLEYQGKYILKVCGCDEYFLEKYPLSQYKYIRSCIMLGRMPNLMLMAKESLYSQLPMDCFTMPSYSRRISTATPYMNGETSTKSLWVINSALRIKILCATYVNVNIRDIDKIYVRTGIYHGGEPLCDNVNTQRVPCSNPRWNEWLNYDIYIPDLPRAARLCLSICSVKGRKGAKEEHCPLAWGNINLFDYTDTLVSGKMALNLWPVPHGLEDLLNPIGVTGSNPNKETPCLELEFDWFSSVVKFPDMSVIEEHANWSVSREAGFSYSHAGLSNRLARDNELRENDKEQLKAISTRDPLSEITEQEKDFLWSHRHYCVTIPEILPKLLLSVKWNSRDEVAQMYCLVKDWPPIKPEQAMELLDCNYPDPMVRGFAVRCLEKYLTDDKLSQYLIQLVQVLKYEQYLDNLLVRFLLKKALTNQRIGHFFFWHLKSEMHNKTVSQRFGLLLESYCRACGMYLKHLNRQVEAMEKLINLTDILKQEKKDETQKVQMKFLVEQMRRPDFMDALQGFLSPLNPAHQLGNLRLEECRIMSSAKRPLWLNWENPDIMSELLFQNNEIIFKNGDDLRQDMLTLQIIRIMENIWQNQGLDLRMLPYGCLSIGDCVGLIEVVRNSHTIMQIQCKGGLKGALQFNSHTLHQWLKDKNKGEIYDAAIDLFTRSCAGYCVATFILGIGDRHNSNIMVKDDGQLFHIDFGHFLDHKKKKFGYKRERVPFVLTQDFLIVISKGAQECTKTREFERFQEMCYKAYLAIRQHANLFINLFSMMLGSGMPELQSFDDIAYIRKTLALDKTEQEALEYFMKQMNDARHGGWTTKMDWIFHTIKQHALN
# Sequence of PI3Kα (P27986 whole entry partner): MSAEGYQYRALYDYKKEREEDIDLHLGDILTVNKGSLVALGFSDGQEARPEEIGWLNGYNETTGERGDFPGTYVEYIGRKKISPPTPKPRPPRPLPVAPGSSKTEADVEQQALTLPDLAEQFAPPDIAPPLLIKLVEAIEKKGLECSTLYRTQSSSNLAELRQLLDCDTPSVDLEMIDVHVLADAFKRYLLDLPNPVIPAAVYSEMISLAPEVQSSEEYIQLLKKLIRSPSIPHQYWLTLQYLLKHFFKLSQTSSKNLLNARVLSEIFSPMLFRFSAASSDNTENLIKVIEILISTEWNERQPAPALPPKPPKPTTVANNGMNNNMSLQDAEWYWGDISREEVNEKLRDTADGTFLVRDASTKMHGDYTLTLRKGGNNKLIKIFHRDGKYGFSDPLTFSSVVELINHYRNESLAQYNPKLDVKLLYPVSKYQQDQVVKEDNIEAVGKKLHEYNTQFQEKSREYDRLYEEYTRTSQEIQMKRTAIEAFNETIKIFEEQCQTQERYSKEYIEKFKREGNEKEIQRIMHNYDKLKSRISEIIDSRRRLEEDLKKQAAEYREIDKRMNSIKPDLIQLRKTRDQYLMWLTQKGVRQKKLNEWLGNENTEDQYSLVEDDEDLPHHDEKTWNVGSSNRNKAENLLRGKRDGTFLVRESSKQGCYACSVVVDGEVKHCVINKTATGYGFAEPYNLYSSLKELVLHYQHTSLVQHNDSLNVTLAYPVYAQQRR
row,Compound,IC50 [nM]
1,NC(=O)CCCCCCCCCNC(=O)c1cc(NC(=O)c2cc(F)cc(C(F)(F)F)c2)c2c(c1)C(=O)N[C@@H]2c1cc(F)ccc1Cl [Example I-83],< 100
2,O=C1CCC(N2C(=O)c3ccc(NCCCCCNC(=O)c4cc(NC(=O)c5cc(F)cc(C(F)(F)F)c5)c5c(c4)C(=O)N[C@H]5c4cc(F)ccc4Cl)cc3C2=O)C(=O)N1 (stereo partly shown) [Example I-85],< 100
3,O=C(O)CCCCCCCCCNC(=O)c1cc(NC(=O)c2cc(F)cc(C(F)(F)F)c2)c2c(c1)C(=O)N[C@H]2c1cc(F)ccc1Cl [Example I-86],1000 to 10000
4,O=C1CCC(N2C(=O)c3ccc(NCCCCCCCNC(=O)c4cc(NC(=O)c5cc(F)cc(C(F)(F)F)c5)c5c(c4)C(=O)N[C@@H]5c4cc(F)ccc4Cl)cc3C2=O)C(=O)N1 (stereo partly shown) [Example I-89],500 to 1000
5,O=C1CCC(N2C(=O)c3ccc(NCCCCCCCNC(=O)c4cc(NC(=O)c5cc(F)cc(C(F)(F)F)c5)c5c(c4)C(=O)N[C@H]5c4cc(F)ccc4Cl)cc3C2=O)C(=O)N1 (stereo partly shown) [Example I-90],< 100
6,O=C(CCCCCCCNC(=O)c1cc(NC(=O)c2cc(F)cc(C(F)(F)F)c2)c2c(c1)C(=O)N[C@@H]2c1cc(F)ccc1Cl)NCc1ccc2c(c1)CN(C1CCC(=O)NC1=O)C2=O (stereo partly shown) [Example I-92],500 to 1000
7,O=C(CCCCCCCNC(=O)c1cc(NC(=O)c2cc(F)cc(C(F)(F)F)c2)c2c(c1)C(=O)N[C@H]2c1cc(F)ccc1Cl)NCc1ccc2c(c1)CN(C1CCC(=O)NC1=O)C2=O (stereo partly shown) [Example I-93],< 100
8,O=C1CCC(N2C(=O)c3ccc(NCCCCNC(=O)c4cc(NC(=O)c5cc(F)cc(C(F)(F)F)c5)c5c(c4)C(=O)N[C@@H]5c4cc(F)ccc4Cl)cc3C2=O)C(=O)N1 (stereo partly shown) [Example I-94],500 to 1000
9,O=C1CCC(N2C(=O)c3ccc(NCCCNC(=O)c4cc(NC(=O)c5cc(F)cc(C(F)(F)F)c5)c5c(c4)C(=O)N[C@@H]5c4cc(F)ccc4Cl)cc3C2=O)C(=O)N1 (stereo partly shown) [Example I-96],100 to 500
10,O=C1CCC(N2C(=O)c3ccc(NCCCNC(=O)c4cc(NC(=O)c5cc(F)cc(C(F)(F)F)c5)c5c(c4)C(=O)N[C@H]5c4cc(F)ccc4Cl)cc3C2=O)C(=O)N1 (stereo partly shown) [Example I-98],< 100
11,O=C1CCC(N2C(=O)c3ccc(NCCCCNC(=O)c4cc(NC(=O)c5cc(F)cc(C(F)(F)F)c5)c5c(c4)C(=O)N[C@H]5c4cc(F)ccc4Cl)cc3C2=O)C(=O)N1 (stereo partly shown) [Example I-100],< 100
12,O=C1CCC(N2Cc3cc(C#CCNC(=O)c4cc(NC(=O)c5cc(F)cc(C(F)(F)F)c5)c5c(c4)C(=O)N[C@@H]5c4cc(F)ccc4Cl)ccc3C2=O)C(=O)N1 (stereo partly shown) [Example I-102],< 100
13,NC(=O)CCCCCCCCCNC(=O)c1cc(NC(=O)c2nsc3ccccc23)c2n1CC(=O)N[C@@H]2c1cc(F)ccc1Cl [Example I-103],< 100
14,NC(=O)CCCCCCCCCNC(=O)c1cc(NC(=O)c2nsc3ccccc23)c2n1CC(=O)N[C@H]2c1cc(F)ccc1Cl [Example I-104],< 100
15,O=C1CCC(N2Cc3cc(C(=O)NCCCCCCCCCNC(=O)c4cc(NC(=O)c5nsc6ccccc56)c5n4CC(=O)N[C@@H]5c4cc(F)ccc4Cl)ccc3C2=O)C(=O)N1 (stereo partly shown) [Example I-106],< 100
16,O=C1CCC(N2Cc3cc(C#CCNC(=O)c4cc(NC(=O)c5cc(F)cc(C(F)(F)F)c5)c5c(c4)C(=O)N[C@H]5c4cc(F)ccc4Cl)ccc3C2=O)C(=O)N1 (stereo partly shown) [Example I-110],< 100

# Results, then the compound that gave them:
row,IC50 [nM],Compound
1,100 to 500,Cc1ncsc1-c1ccc([C@H](C)NC(=O)[C@@H]2C[C@@H](O)CN2C(=O)[C@@H](NC(=O)CCCCCCCCCNC(=O)c2cc(NC(=O)c3cc(F)cc(C(F)(F)F)c3)c3c(c2)C(=O)N[C@@H]3c2cc(F)ccc2Cl)C(C)(C)C)cc1 [Example I-81]
2,1000 to 10000,O=C1CCC(N2Cc3cc(C#CCN4CCC(NC(=O)c5cnc(Nc6cc(F)ccc6Cl)c(NC(=O)c6csc7ccccc67)c5)CC4)ccc3C2=O)C(=O)N1 (stereo not shown) [Example I-84]
3,500 to 1000,Cc1ncsc1-c1ccc([C@H](C)NC(=O)[C@@H]2C[C@@H](O)CN2C(=O)[C@@H](NC(=O)CCCCCCCCCNC(=O)c2cc(NC(=O)c3cc(F)cc(C(F)(F)F)c3)c3c(c2)C(=O)N[C@H]3c2cc(F)ccc2Cl)C(C)(C)C)cc1 [Example I-88]
4,1000 to 10000,Cc1cc(Br)c2oc(N3CCN(C(=O)CCOCCOCCNC(=O)c4cnc(Nc5ccccc5C)c(NC(=O)c5csc6ccccc56)c4)CC3)cc(=O)c2c1 [Example I-91]
5,< 100,O=C1CCC(N2Cc3cc(C#CCNC(=O)c4cnc(Nc5cc(F)ccc5Cl)c(NC(=O)c5csc6ccccc56)c4)ccc3C2=O)C(=O)N1 (stereo not shown) [Example I-95]
6,100 to 500,O=C1CCC(N2C(=O)c3ccc(NCCCCNC(=O)c4cnc(Nc5cc(F)ccc5Cl)c(NC(=O)c5csc6ccccc56)c4)cc3C2=O)C(=O)N1 (stereo not shown) [Example I-97]
7,100 to 500,O=C1CCC(N2C(=O)c3ccc(NCCCNC(=O)c4cnc(Nc5cc(F)ccc5Cl)c(NC(=O)c5csc6ccccc56)c4)cc3C2=O)C(=O)N1 (stereo not shown) [Example I-99]
8,100 to 500,Cc1cc(Br)c2oc(N3CCN(C(=O)CCCCCNC(=O)c4cnc(Nc5ccccc5C)c(NC(=O)c5csc6ccccc56)c4)CC3)cc(=O)c2c1 [Example I-101]
9,500 to 1000,Cc1ncsc1-c1ccc(CNC(=O)[C@@H]2C[C@@H](O)CN2C(=O)[C@@H](NC(=O)CCCCCCCCCNC(=O)c2cc(NC(=O)c3nsc4ccccc34)c3n2CC(=O)N[C@H]3c2cc(F)ccc2Cl)C(C)(C)C)cc1 [Example I-105]
10,< 100,Cc1ncsc1-c1ccc(CNC(=O)[C@@H]2C[C@@H](O)CN2C(=O)[C@@H](NC(=O)CCCCCCCCCNC(=O)c2cc(NC(=O)c3nsc4ccccc34)c3n2CC(=O)N[C@@H]3c2cc(F)ccc2Cl)C(C)(C)C)cc1 [Example I-107]
11,100 to 500,Cc1cc(Br)c2oc(N3CCN(C(=O)CCCCCCNC(=O)c4cnc(Nc5ccccc5C)c(NC(=O)c5csc6ccccc56)c4)CC3)cc(=O)c2c1 [Example I-108]
12,1000 to 10000,Cc1ccccc1Nc1ncc(C(=O)N[C@H](CCC(=O)N[C@H](C(=O)N2C[C@H](O)C[C@H]2C(=O)NCc2ccc(-c3scnc3C)cc2)C(C)(C)C)C(O)O)cc1NC(=O)c1csc2ccccc12 [Example I-109]
13,< 100,Cc1cc([C@@H](C)Nc2ccccc2)c2oc(N3CCN(C(=O)CCOCCOCCNC(=O)c4cnc(Nc5ccccc5C)c(NC(=O)c5csc6ccccc56)c4)CC3)cc(=O)c2c1 [Example I-111]
14,1000 to 10000,Cc1cc([C@H](C)Nc2ccccc2)c2oc(N3CCN(C(=O)CCOCCOCCNC(=O)c4cnc(Nc5ccccc5C)c(NC(=O)c5csc6ccccc56)c4)CC3)cc(=O)c2c1 [Example I-112]
15,100 to 500,Cc1ncsc1-c1ccc([C@H](C)NC(=O)[C@@H]2C[C@@H](O)CN2C(=O)[C@@H](NC(=O)CCCCCCCCCNC(=O)c2cc(NC(=O)c3nsc4ccccc34)c3n2CC(=O)N[C@H]3c2cc(F)ccc2Cl)C(C)(C)C)cc1 [Example I-113]
16,< 100,Cc1cc([C@@H](C)Nc2ccccc2C(=O)O)c2oc(N3CCN(C(=O)CCOCCOCCNC(=O)c4cnc(Nc5ccccc5C)c(NC(=O)c5csc6ccccc56)c4)CC3)cc(=O)c2c1 [Example I-125]
17,100 to 500,Cc1cc([C@H](C)Nc2ccccc2C(=O)O)c2oc(N3CCN(C(=O)CCOCCOCCNC(=O)c4cnc(Nc5ccccc5C)c(NC(=O)c5csc6ccccc56)c4)CC3)cc(=O)c2c1 [Example I-126]
18,1000 to 10000,Cc1cc([C@H](C)Nc2ccccc2C(=O)O)c2oc(N3CCN(C(=O)CCC(=O)NCc4ccc5c(c4)C(=O)N(C4CCC(=O)NC4=O)C5)CC3)cc(=O)c2c1 (stereo partly shown) [Example I-127]

# Reference: US20260131009A1, “BIFUNCTIONAL PI3K-ALPHA INHIBITORS AND USES THEREOF” (Relay Therapeutics, Inc., priority 2021, published 2026)
